This is an account of results in article PMC8899577, “Targeting the anti-apoptotic Bcl-2 family proteins: machine learning virtual screening and biological evaluation of new small molecules” (Theranostics, 2022).

Structures are written as SMILES.

One experiment deals with Bcl-xL (Homo sapiens, UniProt Q07817). Kind of experiment: SPR binding to immobilized Bcl-xL. The following applies: 25 °C, 2-site fit, highest affinity site. The method, then: FastStep experiments were performed with a SensiQ Pioneer apparatus. Bcl-2 immobilization on COOH5 sensorchips was carried out essentially as previously reported, [40]. All the experiments were carried out at 25 °C in degassed HEPES 20 mM, pH 7.4, NaCl 150 mM, 0.005% surfactant P20 + 2% DMSO (HBSP2%D). […] Each sensorgram is the average of at least three experiments. The decrease in Response Units (RU) after 165 s indicates analyte dissociation from the immobilized Bcl-2 upon HSBP2%D buffer injection. Control SPR experiments were carried out measuring sensorgrams on Bcl-xL and Mcl-1 (ligands) immobilized on COOH5 sensorchips as previously reported at 25 °C in degassed HBSP2%D buffer. […] Each sensorgram is the average of at least three experiments. The decrease in RU after 180 s indicates analyte dissociation from the immobilized ligands upon HSBP2%D buffer injection. Kinetic evaluation of the sensorgrams was carried out using the Qdat 4.0 program; best fittings were obtained with 2 sites and indicated in red (reported KD values refer to dissociation constants of the highest affinity site).
Each sensorgram is the average of at least three experiments.
A general note: SPR reads the build-up and loss of mass on a sensor chip optically.

In the next experiment the test system is H1299 NSCLC cells. Kind of experiment: Cell viability by MTT, H1299. Type of experiment: cell-based, Human. The following applies: 20 µM for 72 h, vs control. The method, then:
(§1) The effect of compounds on cell viability was performed by measuring 3-[4,5-dimethylthiazol-2-yl]-2,5-diphenyltetrazolium bromide inner salt (MTT, Sigma-Aldrich) dye absorbance (solid tumor cells) or by quantization of ATP present in metabolically active cells using CellTiter-Glo® Luminescent (Promega, Fitchburg, Wisconsin, USA) (hematologic cells) following manifacturer's protocol. To evaluate the cell colony-forming ability, cell suspension from different samples was seeded into 60-mm Petri dishes. After 10 days, colonies were stained with 2% methylene blue in 95% ethanol and counted (1 colony > 50 cells). The surviving fractions were calculated as the ratio of absolute survival of the treated sample/survival of DMSO-treated control sample.
(§2) Figure 4 Analysis of the effect of IS20 and IS21 on cell viability, clonogenic ability and tumor sphere formation in cancer cells. […] (B) Representative images and quantification of clonogenic ability evaluated in M14 and H1299 cells treated with IS20 or IS21 (20 μM for 72 h). […] (C) Quantification of tumor sphere formation of M14 and H1299 cells treated with IS20 or IS21 (20 μM for 72 h). […] (A-C) Data are reported as mean ± SD of three independent experiments. p-values were calculated between control (Ctrl) and treated cells, ** p < 0.001 and *** p < 0.0001.

Experiment [1] concerns MDA-MB-231 breast carcinoma cells. Kind of experiment: Cell viability by MTT, MDA-MB-231. Type of experiment: cell-based, Human. The following applies: 20 µM for 72 h, vs control. The method, then: as §1, §2
Experiment [2] has as its system M14 cells. Kind of experiment: Clonogenic assay, M14. Type of experiment: cell-based, Human. The following applies: 20 µM for 72 h, respect to controls. The method, then: as §1, §2
The next experiment concerns HCT116 cells. Kind of experiment: Western blot of PARP1 cleavage, HCT116. It counts as cell-based, Human. The note with it: 72 h. The method, then: (§3) Western blot analyses of total protein extracts were performed as previously described. Immunodetection was performed using antibodies directed to poly (ADP-ribose) polymerase (PARP; BD Biosciences San Diego, CA, USA), LC3B (Cell Signaling Technology, Danvers, MA), HSP72/73 (Calbiochem, EMD Biosciences, La Jolla, CA), Bcl-2 (SC-509, Santa Cruz Biotechnology Inc, Dallas, TX, USA), Bcl-xL (SC-271121, Santa Cruz Biotechnology Inc), Mcl-1 (SC-12756, Santa Cruz Biotechnology Inc) α-tubulin (Santa Cruz Biotechnology Inc) actin (Sigma-Aldrich, St. Louis, Missouri, USA). Anti-rabbit or anti-mouse immunoglobulin G-horseradish peroxidase-conjugated antibodies (Amersham Biosciences, Freiburg, Germany) were used as secondary antibody. Images were acquired by Image Lab Software (Bio-Rad, Hercules, CA, USA), using a ChemiDoc System instrument (Bio-Rad). […]
(§4) Figure 5 Analysis of apoptosis induction by IS20 and IS21 in leukemia, melanoma and NSCLC cells. […] (G) Flow cytometric quantification of cells in the subG1 peak of cell cycle distribution by propidium iodide staining in HL60 cell line treated with IS20 or IS21 (20 μM for 24 h) and in M14, H1299 and MDA-MB-231 cell lines treated with IS20 or IS21 (20 μM for 72 h). Data are reported as mean ± SD of three independent experiments. p-values were calculated between control (Ctrl) and treated cells, * p < 0.05. […]
Background: In western blotting, separated proteins are transferred to a membrane and probed.

Another experiment concerns HL60 cells. Kind of experiment: Western blot of PARP1 cleavage, HL60. It counts as cell-based, Human. The note with it: 20 µM for 24 h. The method, then:
as §3, §4

The subject of experiment [3] is M14 cells. Kind of experiment: Flow cytometry subG1 peak (PI staining), M14. Type of experiment: cell-based, Human. The following applies: 20 µM for 72 h. The method, then: (§5) Flow cytometric analysis (BD Accuri™ C6, BD Biosciences) was performed to evaluate cell cycle distribution by propidium iodide (PI) staining, and cell viability by using the PI dye exclusion assay as previously reported.
(§6) Figure 5 Analysis of apoptosis induction by IS20 and IS21 in leukemia, melanoma and NSCLC cells. […] (A-F) Reported images are representative of two independent experiments with similar results. HSP72/73 or α-Tubulin are shown as loading and transferring control. (G) Flow cytometric quantification of cells in the subG1 peak of cell cycle distribution by propidium iodide staining in HL60 cell line treated with IS20 or IS21 (20 μM for 24 h) and in M14, H1299 and MDA-MB-231 cell lines treated with IS20 or IS21 (20 μM for 72 h). Data are reported as mean ± SD of three independent experiments. p-values were calculated between control (Ctrl) and treated cells, * p < 0.05. (H) Flow cytometric quantification of cells in the subG1 peak by propidium iodide staining in M14 and H1299 cell lines treated with IS20 or IS21 (20 μM, 72 h) in presence or absence of the pan caspase inhibitor z-VAD (50 μM). p-values were calculated between treated control (Ctrl) cells, # p < 0.01, ## p < 0.001 or between cells treated with IS20 or IS21 alone or in combination with z-VAD, * p < 0.05, ** p < 0.005. (G-H) Data are reported as mean of two (H) or three (G) experiments ± SD.
A general note: A flow cytometer gives signals particle by particle.

For another experiment, the system named is H1299 cells. Kind of experiment: Flow cytometry subG1 peak (PI staining), H1299. It counts as cell-based, Human. The note with it: 20 µM for 72 h. The method, then: as §5, §6
Another experiment concerns MDA-MB-231 cells. Kind of experiment: Flow cytometry subG1 peak (PI staining), MDA-MB-231. It counts as cell-based, Human. The following applies: 20 µM for 72 h. The method, then:
as §5, §6

A further experiment concerns U937 cells. Kind of experiment: Western blot of LC3B-I/LC3B-II (autophagy), U937. It counts as cell-based, Human. The following applies: 20 µM for 24 h.

Chain of Bcl-xL (Q07817 whole entry): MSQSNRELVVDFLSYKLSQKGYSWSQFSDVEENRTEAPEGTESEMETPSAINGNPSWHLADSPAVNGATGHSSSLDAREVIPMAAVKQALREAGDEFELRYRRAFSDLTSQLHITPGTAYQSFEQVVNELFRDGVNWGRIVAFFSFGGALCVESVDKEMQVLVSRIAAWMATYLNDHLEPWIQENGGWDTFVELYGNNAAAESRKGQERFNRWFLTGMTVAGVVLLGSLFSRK

For `CCCCOc1ccc(C2/C(=C(\O)c3ccc4c(c3)CC(C)O4)C(=O)C(=O)N2c2nnc(SCc3ccc(Cl)cc3)s2)cc1OCC` (centres unmarked) [IS20], the Kd at Bcl-xL was 420 ± 90 nM. The “cell viability H1299” value in the experiment on H1299 NSCLC cells was “significant inhibition”. Further, the “cell viability MDA-MB-231” value in experiment [1] is listed as “not significantly perturbed”. The “decrease of cell colony formation, M14” value in the experiment with M14 cells [2] is 80-90%. Besides, in the experiment with HCT116 cells, the “PARP1 cleavage, HCT116” value was “not evident”. Moreover, the “PARP1 cleavage, HL60” value in the experiment with HL60 cells is reported as “cleavage of PARP1”. Moreover, the “subG1 peak of cell cycle distribution, M14” value in the experiment with M14 cells [3] was “presence of subG1 peak”. For the same compound, in the experiment on H1299 cells, the “subG1 peak of cell cycle distribution, H1299” value was “presence of subG1 peak”. Besides, in the experiment with MDA-MB-231 cells, the “subG1 peak of cell cycle distribution, MDA-MB-231” value is on record as “not evident”. Also, the “ratio of LC3B-II on LC3B-I, U937” value in the experiment on U937 cells is listed as “Increased ratio”.
`CCCCCOc1ccc(C2/C(=C(\O)c3ccc4c(c3)CC(C)O4)C(=O)C(=O)N2c2nnc(SCc3ccc(Cl)cc3)s2)cc1OCC` (centres unmarked) [IS21] came in with a Kd at Bcl-xL of 510 ± 170 nM. Also, in the experiment on H1299 NSCLC cells, the “cell viability H1299” value is “significant inhibition”. The “cell viability MDA-MB-231” value in experiment [1] is “not significantly perturbed”. In the experiment on M14 cells [2], the “decrease of cell colony formation, M14” value is 80-90%. Further, in the experiment on HCT116 cells, the “PARP1 cleavage, HCT116” value is reported as “not evident”. Moreover, in the experiment on HL60 cells, the “PARP1 cleavage, HL60” value is “cleavage of PARP1”. Further, in the experiment with M14 cells [3], the “subG1 peak of cell cycle distribution, M14” value is reported as “presence of subG1 peak”. Besides, the “subG1 peak of cell cycle distribution, H1299” value in the experiment on H1299 cells was “presence of subG1 peak”. Besides, the “subG1 peak of cell cycle distribution, MDA-MB-231” value in the experiment with MDA-MB-231 cells is “not evident”. Moreover, the “ratio of LC3B-II on LC3B-I, U937” value in the experiment with U937 cells is listed as “Increased ratio”.

As a reminder, the Kd is the constant that tells how readily two partners part at equilibrium. Lower therefore signals higher affinity.
